One test deals with HCT116 parental cells. Put plainly: Proliferation assay (CellTiter-Glo, 10 days of treatment), HCT116 parental. Format: cell-based. To be noted: Homo sapiens, HCT-116, 240 h. How it is done: (§1) Control samples were analyzed in parallel.
Briefly, on Day 0, 250 HCT116 parental or HCT116 homozygous MTAP knockout cell were seeded in 96 well plates in McCoy's 5A supplemented with 10% fetal bovine serum and pen/strep and the cells were incubated overnight at 37° C. plus 5% CO2.
The following day, cells were treated with DMSO vehicle control or a dose response of PRMT5 inhibitors and incubated at 37 C plus 5% CO2 for five days. On Day 6, the cells were trypsinized and split 1:10 into new 96-well plates with fresh medium containing the same concentration of PRMT5 inhibitor and incubated for an additional 5 days at 37° C. plus 5% CO^2.
On Day 11, the viability of the cells was measured using a CTG assay kit (CellTiter-Glo; Promega cat.no G7573) in accordance with the manufacturer's instructions. The IC50 values for each compound after 10 days of treatment were calculated using GraphPad PRISM software.

In test [1] the test system is PRMT5-dependent Symmetric Di-methyl Arginine signal in HCT116 homozygous MTAP knockout cells. Put plainly: SYM11 In-Cell Western, HCT116 MTAP knockout. Format: cell-based. To be noted: Homo sapiens, HCT-116, 96 h, HCT116 homozygous MTAP knockout cells, 4 days of treatment, SYM11/DRAQ5 ratio; read-out: In-cell-Western (SYM11) HCT116 MTAP_KO IC50.
Test [2] concerns HCT116 homozygous MTAP knockout cells. The test can be described thus: Proliferation assay (CellTiter-Glo, 10 days of treatment), HCT116 MTAP knockout. Type of test: cell-based. The conditions noted are these: Homo sapiens, HCT-116, 240 h, read-out: Proliferation HCT116MTAP_KO IC50. Summed up: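 Cells (250/well) seeded in McCoy's 5A with 10% FBS, then treated the next day with a PRMT5 inhibitor dose response at 37 °C, 5% CO2. On day 6 they were split 1:10 into fresh medium with the same compound concentration. CellTiter-Glo viability was read on day 11 and IC50 taken after 10 days of treatment.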

The target of test [3] is T1, PRMT5/MEP50 complex (Homo sapiens (Human), UniProt O14744). Put plainly: PRMT5:MEP50 HotSpot Assay (full-length histone H2A substrate, plus and minus MTA). Type of test: biochemical. The conditions noted are these: IC50 + 2 μM MTA, in the presence of 2 μM MTA. Summed up: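 Radiometric filter-binding format using recombinant full-length histone H2A as substrate. After the reaction was stopped, mixtures went onto filter paper and tritiated H2A was quantified by scintillation counting.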

For test [4], the system named is PRMT5-dependent Symmetric Di-methyl Arginine signal in HCT116 parental cells. The test can be described thus: SYM11 In-Cell Western, HCT116 parental. Type of test: cell-based. The conditions noted are these: Homo sapiens, HCT-116, 96 h, 4 days of treatment, SYM11/DRAQ5 ratio. How it is done: as §1
Briefly, on Day 0, 2,000 HCT116 parental or HCT116 homozygous MTAP knockout cells were seeded in 96 well plates in McCoy's 5A supplemented with 10% fetal bovine serum and pen/strep and the cells were incubated overnight at 37° C. plus 5% CO2. The following day, cells were treated with DMSO vehicle control or a dose response of PRMT5 inhibitors, and incubated at 37° C. plus 5% CO^2 for four days.
After 4 days of treatment, the cells were fixed by adding 50 μl of 4% paraformaldehyde solution to each well and the cells were incubated for 20 min at room temperature. The paraformaldehyde solution was removed, 150 μl of ice-cold methanol was added and the plate was placed −20° C. for 10 minutes. The methanol was removed, 150 μl of Odyssey Blocking buffer+0.05% Tween20 was added and the plate was incubated at room temperature with shaking for one hour.
The primary SYM11 antibody solution was removed by aspiration and the wells were washed three consecutive times with phosphate buffered saline containing 0.1% Tween-20 (PBST).
The secondary antibody solution was removed by aspiration and the wells were washed three consecutive times with PB ST.
The SYM11 signal and the DRAQ5 signal were quantified using a Li-Cor Odyssey machine reading at […], respectively. The SYM11/DRAQ5 ratio was used to calculate the inhibition of Symmetric Dimethyl Arginine as percent of DMSO control.

Test [5] concerns the target T1, PRMT5/MEP50 complex. The test can be described thus: PRMT5:MEP50 FlashPlate Assay (histone H4 peptide substrate, plus and minus MTA). Format: biochemical. On the procedure:
The PRMT5 inhibitory activity of compounds of the present invention was determined using either a PRMT5:MEP50 FlashPlate Assay (Reaction Biology Corporation) or a PRMT5:MEP50 HotSpot Assay (Reaction Biology Corporation).
1. PRMT5:MEP50 FlashPlate Assay

Structures are written as SMILES.

T1 sequence (O14744 2-637): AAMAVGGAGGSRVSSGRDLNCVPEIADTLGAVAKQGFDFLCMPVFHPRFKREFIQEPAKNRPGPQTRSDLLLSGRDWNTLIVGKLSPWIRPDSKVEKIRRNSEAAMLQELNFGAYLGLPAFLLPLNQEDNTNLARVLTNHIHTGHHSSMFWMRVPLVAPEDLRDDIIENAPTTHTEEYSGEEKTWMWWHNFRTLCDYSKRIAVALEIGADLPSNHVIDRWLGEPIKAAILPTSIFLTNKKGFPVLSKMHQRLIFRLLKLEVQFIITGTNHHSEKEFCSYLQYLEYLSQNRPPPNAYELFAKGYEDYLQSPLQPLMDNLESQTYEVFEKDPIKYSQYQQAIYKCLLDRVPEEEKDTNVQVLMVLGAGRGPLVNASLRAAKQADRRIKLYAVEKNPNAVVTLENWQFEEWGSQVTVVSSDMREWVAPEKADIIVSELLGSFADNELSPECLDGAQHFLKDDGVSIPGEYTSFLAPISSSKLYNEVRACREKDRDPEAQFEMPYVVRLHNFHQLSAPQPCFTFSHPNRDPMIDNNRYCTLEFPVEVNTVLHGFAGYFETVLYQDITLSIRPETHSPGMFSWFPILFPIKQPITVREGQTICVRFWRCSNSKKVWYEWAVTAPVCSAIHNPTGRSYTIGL
T1 sequence (Q9BQA1 2-342 partner): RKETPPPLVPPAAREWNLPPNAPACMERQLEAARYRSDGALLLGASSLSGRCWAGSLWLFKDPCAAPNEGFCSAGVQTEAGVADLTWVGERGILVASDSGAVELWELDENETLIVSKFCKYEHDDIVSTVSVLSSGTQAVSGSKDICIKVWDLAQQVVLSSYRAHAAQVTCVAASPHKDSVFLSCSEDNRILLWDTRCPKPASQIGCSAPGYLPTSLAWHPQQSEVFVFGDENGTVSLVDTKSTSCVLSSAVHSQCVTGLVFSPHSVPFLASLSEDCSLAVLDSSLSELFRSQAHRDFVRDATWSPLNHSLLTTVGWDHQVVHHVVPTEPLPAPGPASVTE

`Cc1ccc(-c2c(-c3ccc4c(=O)[nH]nc(CN)c4c3)cnn2C)c(C#N)c1Cl` [Example 4-151, 2-(4-(4-(aminomethyl)-1-oxo-1,2-dihydrophthalazin-6-yl)-1-methyl-1H-pyrazol-5-yl)-6-chloro-5-methylbenzonitrile]: the IC50 in the test on HCT116 parental cells is more than 10 µM; in test [1], 0.051 µM; in test [2], 0.504 µM; at PRMT5/MEP50 complex [3], 0.606 µM; in test [4] it was 5.81 µM.
The matching figures for `Cn1ncc(-c2ccc3c(=O)[nH]nc(CN)c3c2)c1-c1ccc2c(Cl)cccc2c1C#N` [Example 4-184, 2-(4-(4-(aminomethyl)-1-oxo-1,2-dihydrophthalazin-6-yl)-1-methyl-1H-pyrazol-5-yl)-5-chloro-1-naphthonitrile]: 9.4 µM, 0.004 µM, 0.107 µM, 0.127 µM and more than 10 µM.
Take `CCOc1cccc(-c2c(-c3cc(Cl)c4c(=O)[nH]nc(CN)c4c3)cnn2C)c1C#N` [Example 10-5, 2-(4-(4-(aminomethyl)-8-chloro-1-oxo-1,2-dihydrophthalazin-6-yl)-1-methyl-1H-pyrazol-5-yl)-6-ethoxybenzonitrile]: the IC50 was more than 10 µM in the test with HCT116 parental cells; 0.03 µM in test [1]; 0.25 µM in test [2]; 1.15 µM at PRMT5/MEP50 complex [3]; more than 10 µM in test [4].
On to `NCc1n[nH]c(=O)c2ccc(-c3cncc(Oc4cccc(Cl)c4)c3)cc12` [Example 4-67, 4-(aminomethyl)-6-(5-(3-chlorophenoxy)pyridin-3-yl)phthalazin-1(2H)-one], for which the IC50 in the test on HCT116 parental cells is 7.7 µM; in test [1], 0.945 µM; in test [2], 2.03 µM; at PRMT5/MEP50 complex [5] (IC50 + 2 μM MTA (nM), in the presence of 2 μM MTA), 4 nM; at PRMT5/MEP50 complex [5] (in the absence of MTA, read-out: IC50) it was 204 nM; in test [4], 10 µM.
For `Cn1ncc(-c2ccc3c(=O)[nH]nc(CN)c3c2)c1-c1cc(C(F)(F)F)cc(OC2CC2)c1C#N` [Example 4-209, 2-(4-(4-(aminomethyl)-1-oxo-1,2-dihydrophthalazin-6-yl)-1-methyl-1H-pyrazol-5-yl)-6-cyclopropoxy-4-(trifluoromethyl)benzonitrile], the IC50 in the test on HCT116 parental cells is 4.67 µM; in test [1], 0.01 µM; in test [2], 0.059 µM; in test [4], more than 1 µM.
The corresponding values for `Cn1ncc(-c2cc(Cl)c3c(=O)[nH]nc(CN)c3c2)c1-c1cc(Cl)cc(OC2CC2)c1C#N` [Example 10-16, 2-(4-(4-(aminomethyl)-8-chloro-1-oxo-1,2-dihydrophthalazin-6-yl)-1-methyl-1H-pyrazol-5-yl)-4-chloro-6-cyclopropoxybenzonitrile] are 1.76 µM, 0.048 µM, 0.086 µM and 0.086 µM.
For the compound `Cn1ncc(-c2ccc3c(=O)[nH]nc(CN)c3c2)c1-c1c(F)cc2ccccc2c1C#N` [Example 4-203, 2-(4-(4-(aminomethyl)-1-oxo-1,2-dihydrophthalazin-6-yl)-1-methyl-1H-pyrazol-5-yl)-3-fluoro-1-naphthonitrile], the IC50 came out at 1.21 µM in the test on HCT116 parental cells, 0.002 µM in test [1], 0.019 µM in test [2] and 0.903 µM in test [4].
The matching figures for `Cn1ncc(-c2ccc3c(=O)[nH]nc(CN)c3c2)c1-c1c(C#N)cc2ccccc2c1Cl` [Example 4-229, 3-(4-(4-(aminomethyl)-1-oxo-1,2-dihydrophthalazin-6-yl)-1-methyl-1H-pyrazol-5-yl)-4-chloro-2-naphthonitrile]: 2.86 µM, 0.011 µM, 0.059 µM and more than 1 µM.
Turning to `Cn1ncc(-c2ccc3c(=O)[nH]nc(CN)c3c2)c1-c1ccc2ncc(Cl)cc2c1C#N` [Example 4-225, 6-[4-[4-(aminomethyl)-1-oxo-2H-phthalazin-6-yl]-2-methyl-pyrazol-3-yl]-3-chloro-quinoline-5-carbonitrile], the IC50 with HCT116 parental cells was 5.17 µM; in test [1] it was 0.017 µM; in test [2] it was 0.084 µM; in test [4], more than 1 µM.
The corresponding values for `Cn1ncc(-c2ccc3c(=O)[nH]nc(CN)c3c2)c1-c1ccc2ccc(F)cc2c1C#N` [Example 4-217, 2-(4-(4-(aminomethyl)-1-oxo-1,2-dihydrophthalazin-6-yl)-1-methyl-1H-pyrazol-5-yl)-7-fluoro-1-naphthonitrile] are 2.15 µM, 0.087 µM, 0.096 µM and more than 1 µM.
Turning to `Cn1ncc(-c2ccc3c(=O)[nH]nc(CN)c3c2)c1-c1c(Cl)cc2ccccc2c1C#N` [Example 4-215, 2-(4-(4-(aminomethyl)-1-oxo-1,2-dihydrophthalazin-6-yl)-1-methyl-1H-pyrazol-5-yl)-3-chloro-1-naphthonitrile], the IC50 in the test with HCT116 parental cells was 3.54 µM; in test [1] it was 0.034 µM; in test [2], 0.081 µM; in test [4], more than 1 µM.
The corresponding values for `Cn1ncc(-c2ccc3c(=O)[nH]nc(CN)c3c2)c1-c1ccc2c(F)cccc2c1C#N` [Example 4-223, 2-(4-(4-(aminomethyl)-1-oxo-1,2-dihydrophthalazin-6-yl)-1-methyl-1H-pyrazol-5-yl)-5-fluoro-1-naphthonitrile] are 7.81 µM, 0.012 µM, 0.075 µM and 0.756 µM.
For `Cn1ncc(-c2ccc3c(=O)[nH]nc(CN)c3c2)c1-c1cc(C#N)c2ccccc2c1F` [Example 4-210, 3-(4-(4-(aminomethyl)-1-oxo-1,2-dihydrophthalazin-6-yl)-1-methyl-1H-pyrazol-5-yl)-4-fluoro-1-naphthonitrile], the IC50 in the test with HCT116 parental cells is 1.36 µM; in test [1], 0.008 µM; in test [2], 0.416 µM; in test [4], more than 1 µM.
On to `Cn1ncc(-c2ccc3c(=O)[nH]nc(CN)c3c2)c1-c1cc2ccccc2c(OC2CC2)c1C#N` [Example 4-231, 3-(4-(4-(aminomethyl)-1-oxo-1,2-dihydrophthalazin-6-yl)-1-methyl-1H-pyrazol-5-yl)-1-cyclopropoxy-2-naphthonitrile], for which the IC50 in the test with HCT116 parental cells is 3.12 µM; in test [1], 0.037 µM; in test [2], 0.05 µM; in test [4] it was more than 1 µM.
The corresponding values for `Cc1cc(OC2CC2)c(C#N)c(-c2c(-c3ccc4c(=O)[nH]nc(CN)c4c3)cnn2C)c1F` [Example 4-241, 2-(4-(4-(aminomethyl)-1-oxo-1,2-dihydrophthalazin-6-yl)-1-methyl-1H-pyrazol-5-yl)-6-cyclopropoxy-3-fluoro-4-methylbenzonitrile] are 2.4 µM, 0.014 µM, 0.051 µM and more than 1 µM.
As for `COc1cccc2c(C#N)c(-c3c(-c4ccc5c(=O)[nH]nc(CN)c5c4)cnn3C)ccc12` [Example 4-204, 2-(4-(4-(aminomethyl)-1-oxo-1,2-dihydrophthalazin-6-yl)-1-methyl-1H-pyrazol-5-yl)-5-methoxy-1-naphthonitrile], the IC50 with HCT116 parental cells was 1.83 µM; in test [1], 0.012 µM; in test [2], 0.052 µM; in test [4] it was more than 1 µM.

Source of the values: US11479551B2, “MTA-cooperative PRMT5 inhibitors” (Mirati Therapeutics, Inc., priority 2019, dated 2022).
